For 10 molecules, Activity and EC50 results are on record in ChEMBL document CHEMBL4033744, “Synthesis and biological evaluation of steroidal derivatives bearing a small ring as vitamin D receptor agonists” (Bioorg Med Chem Lett, 2017).

Common to all, as to type: cell-based
Test [1] has as its target T1, Vitamin D3 receptor (Homo sapiens) (UniProt P11473).
T1 sequence (whole entry): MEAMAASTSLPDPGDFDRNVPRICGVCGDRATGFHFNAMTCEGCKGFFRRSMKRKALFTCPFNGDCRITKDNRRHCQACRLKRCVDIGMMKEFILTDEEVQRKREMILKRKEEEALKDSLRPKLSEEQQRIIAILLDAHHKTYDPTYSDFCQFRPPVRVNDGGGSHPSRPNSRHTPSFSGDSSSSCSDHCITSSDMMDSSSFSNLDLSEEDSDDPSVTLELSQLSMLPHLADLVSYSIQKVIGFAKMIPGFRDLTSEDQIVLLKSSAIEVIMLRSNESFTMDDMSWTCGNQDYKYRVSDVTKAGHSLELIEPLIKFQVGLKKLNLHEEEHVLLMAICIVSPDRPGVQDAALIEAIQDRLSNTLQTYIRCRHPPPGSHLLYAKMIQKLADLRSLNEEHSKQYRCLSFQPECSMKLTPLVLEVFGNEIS
Kind of test: Agonist activity at vitamin D receptor (unknown origin) expressed in HEK293 cells co-expressing pCMX-RXRalpha and pCMX-beta-galactosidase assessed as induction of receptor transactivation incubated for 16 to 24 hrs by luciferase reporter gene assay relative to 3-keto-LCA. On the technique in general: In a reporter assay the amount or activity of a reporter protein is the signal.

Another test has as its target T2, Vitamin D3 receptor (Homo sapiens, UniProt P11473).
T2 sequence (P11473 whole entry): T1 sequence (whole entry)
Kind of test: (§1) Agonist activity at vitamin D receptor (unknown origin) expressed in HEK293 cells co-expressing pCMX-RXRalpha and pCMX-beta-galactosidase assessed as induction of receptor transactivation incubated for 16 to 24 hrs by luciferase reporter gene assay.

Test [2] has as its target T1, Vitamin D3 receptor (Homo sapiens). Described as §1.

SMILES strings stand for the structures. The source made the active and inactive calls. The calls are words filed in the database; no cut-off is given here.

Take `C[C@]12CCC(=O)C[C@H]1CC[C@@H]1[C@@H]2CC[C@@]2(C)[C@H]1C[C@H]1C[C@@H](CCC(=O)O)[C@]12O`: the outcome in test [1] was inactive.

Turning to `C[C@]12CCC(=O)C[C@H]1CC[C@@H]1[C@@H]2CC[C@@]2(C)[C@H]1CC[C@@]21C[C@H]1CCC(=O)O`, the result in test [1] was inactive.

The term EC50 denotes the concentration that produces a half-maximal response. With `CC(C)(O)CCC[C@@H]1C[C@@H]2C[C@H]3[C@@H]4CCc5cc(O)ccc5[C@H]4CC[C@]3(C)[C@]12O`, on Vitamin D3 receptor, the EC50 came out at 4.1 µM. Moreover, in test [1], the result was Active.

Take `C[C@H](CCCC(C)(C)O)[C@H]1CC[C@H]2[C@@H]3CCc4cc(O)ccc4[C@H]3CC[C@]12C`: the EC50 on Vitamin D3 receptor came out at 0.85 µM.

On to `C[C@H](CCC(=O)O)[C@H]1CC[C@H]2[C@@H]3CC[C@@H]4CC(=O)CC[C@]4(C)[C@H]3CC[C@]12C`, for which the outcome in test [2] was Active.

For the molecule `C[C@]12CCC(=O)C[C@H]1CC[C@@H]1[C@@H]2CC[C@@]2(C)[C@H]1C[C@H]1C[C@H](CCC(=O)O)[C@]12O`, the outcome in test [1] was inactive.

As for `CC(C)(O)CCC[C@H]1C[C@@]12CC[C@H]1[C@@H]3CCc4cc(O)ccc4[C@H]3CC[C@@]12C`, the outcome in test [1] was Active.

Turning to `CC(C)(O)CCC[C@@H]1C[C@@]12CC[C@H]1[C@@H]3CCc4cc(O)ccc4[C@H]3CC[C@@]12C`, the concentration giving a half-maximal response (EC50) on Vitamin D3 receptor stood at 3.7 µM. For the same molecule, the outcome in test [1] was Active.

Consider `CC(C)(O)CCC[C@H]1C[C@@H]2C[C@H]3[C@@H]4CCc5cc(O)ccc5[C@H]4CC[C@]3(C)[C@@]21O`, for which the outcome in test [1] was Active.

For `C[C@]12CCC(=O)C[C@H]1CC[C@@H]1[C@@H]2CC[C@@]2(C)[C@H]1CC[C@@]21C[C@@H]1CCC(=O)O`, in test [1], the result was inactive.
